# Source: patent US10975056B2 (GlaxoSmithKline Intellectual Property Development Limited, priority 2016, dated 2021)
# Like-named read-outs stand apart in the source and are kept apart here.
# Experiments:
# [1] = molecular target: human full length DNMT1 (Homo sapiens (Human), UniProt P26358); assay: DNMT1 breaklight assay; assay type: biochemical; conditions: repeated experimental runs, read-out: average IC50 against DNMT1
# Procedure: DNMT1 breaklight in vitro assays were conducted in a total volume of 50 μl in a standard 384 well format, using black non-binding surface microplates (Corning 3575). Five μl of human full length DNMT1 (produced internally), used at a final concentration of 40 nM, was added to 5 μl of substrate mixture containing final concentrations of 125 nM hemi methylated oligonucleotide (synthesized at ATD Bio; 5′-FAM-[…]5[…]5G5TAGAT-3′ where 5=methyl deoxycitidine) and 2 μM ultrapure SAM (Cisbio #62SAHZLD). Negative control wells used 5 μl of DNMT1 and 5 μl of oligonucleotide but 0 μM SAM. All reagents were made up in 1× assay buffer (20 mM Tris pH 6.8, 25 mM NaCl, 0.5 mM MgCl2, 0.01% Triton X100 and 1 mM DTT). The reaction was incubated at 26° C. for 45 min and then stopped with the addition of 40 μl detection reagent. Detection reagent, made up in 1× Gla assay buffer (20 mM Tris pH 8.0, 80 mM NaCl, 0.75 mM MgCl2, 0.01% Triton X100 and 1 mM DTT) has a final concentration of 100 μM SAH (Sigma #A9384) and 0.0008 units/μl Gla1 restriction endonuclease (Sibenzyme #E494). Following addition of the detection reagent the plate was incubated in the dark at room temperature for 5 hr. Fluorescence intensity was then measured on the PHERAstar FS (BMG Labtech) at Ex 485 nm and Em 520 nm, with a gain of 400 and an integration time of 100 ms.
# [2] = molecular target: DNMT1 (Homo sapiens, UniProt P26358); assay: DNMT1 biochemical activity, breaklight assay and/or SPA assay
# Chain of DNMT1 (P26358 whole entry, looked up): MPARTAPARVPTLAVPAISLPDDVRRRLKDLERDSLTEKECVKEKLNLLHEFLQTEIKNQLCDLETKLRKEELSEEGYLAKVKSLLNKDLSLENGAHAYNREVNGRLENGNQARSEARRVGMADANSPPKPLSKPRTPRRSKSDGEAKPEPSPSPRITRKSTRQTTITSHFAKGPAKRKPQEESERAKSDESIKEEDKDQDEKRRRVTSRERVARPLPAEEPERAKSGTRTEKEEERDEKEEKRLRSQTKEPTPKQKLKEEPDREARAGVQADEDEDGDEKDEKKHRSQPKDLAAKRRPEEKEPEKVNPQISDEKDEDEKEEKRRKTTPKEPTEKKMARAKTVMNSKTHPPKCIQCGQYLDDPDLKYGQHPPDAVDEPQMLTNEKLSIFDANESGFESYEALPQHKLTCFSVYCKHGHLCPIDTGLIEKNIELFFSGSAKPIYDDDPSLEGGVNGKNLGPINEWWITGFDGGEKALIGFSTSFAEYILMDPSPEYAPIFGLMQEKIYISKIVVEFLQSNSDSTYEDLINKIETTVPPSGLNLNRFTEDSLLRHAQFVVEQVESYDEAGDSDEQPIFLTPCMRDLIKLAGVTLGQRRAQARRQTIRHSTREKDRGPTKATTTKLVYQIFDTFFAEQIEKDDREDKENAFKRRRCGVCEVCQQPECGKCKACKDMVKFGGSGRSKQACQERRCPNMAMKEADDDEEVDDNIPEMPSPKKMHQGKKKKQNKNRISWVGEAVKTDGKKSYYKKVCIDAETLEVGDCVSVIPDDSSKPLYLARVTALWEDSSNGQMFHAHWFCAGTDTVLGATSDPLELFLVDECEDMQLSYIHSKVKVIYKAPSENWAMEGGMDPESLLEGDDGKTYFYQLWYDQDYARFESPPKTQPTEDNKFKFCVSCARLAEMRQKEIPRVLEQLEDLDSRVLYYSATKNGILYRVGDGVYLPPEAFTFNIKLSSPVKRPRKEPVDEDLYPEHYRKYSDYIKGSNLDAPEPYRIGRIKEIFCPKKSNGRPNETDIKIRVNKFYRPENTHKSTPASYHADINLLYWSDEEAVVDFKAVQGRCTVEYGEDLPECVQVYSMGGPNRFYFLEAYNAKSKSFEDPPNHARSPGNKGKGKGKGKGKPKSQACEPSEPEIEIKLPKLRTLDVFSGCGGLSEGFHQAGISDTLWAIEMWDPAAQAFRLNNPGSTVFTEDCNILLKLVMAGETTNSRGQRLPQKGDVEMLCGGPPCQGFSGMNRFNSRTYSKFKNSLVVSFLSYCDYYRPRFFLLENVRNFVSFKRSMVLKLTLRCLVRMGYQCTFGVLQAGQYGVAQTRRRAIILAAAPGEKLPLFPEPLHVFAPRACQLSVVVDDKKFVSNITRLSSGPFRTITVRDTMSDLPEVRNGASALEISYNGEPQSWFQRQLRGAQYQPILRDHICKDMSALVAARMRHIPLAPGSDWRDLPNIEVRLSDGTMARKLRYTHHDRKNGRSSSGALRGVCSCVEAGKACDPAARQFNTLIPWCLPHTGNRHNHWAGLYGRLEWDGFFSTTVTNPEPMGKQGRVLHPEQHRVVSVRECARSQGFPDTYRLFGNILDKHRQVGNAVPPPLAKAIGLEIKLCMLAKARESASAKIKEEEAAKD
# [3] = system: erythroid progenitor cells (EPCs); assay: Fetal hemoglobin (HbF) ELISA in day 7 erythroid progenitor cells; assay type: cell-based, human; conditions: Homo sapiens, Erythroid progenitor cell, HbF ELISA, day 7 EPCs, 5 days; read-out: EPC ELISA (pEC50 category) (converted);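 further: for fetal hemoglobin induction normalized to vehicle-treated cells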
# Method in brief: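 Day 7 EPCs from human bone marrow CD34+ cells were plated at 1,000 cells/well in media with 3 U/mL rhEPO. They were exposed to a 22-point dilution ([…]) for 5 days at 37 °C. Lysate HbF was measured by sandwich ELISA (OD450) and normalized to DMSO control wells.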
# [4] = molecular target: human DNMT3a/3l (Homo sapiens (Human), UniProt Q9Y6K1); assay: DNMT3a/3l breaklight assay; assay type: biochemical; conditions: read-out: DNMT3A Breaklight IC50
# Chain of human DNMT3a/3l (Q9Y6K1 whole entry, looked up): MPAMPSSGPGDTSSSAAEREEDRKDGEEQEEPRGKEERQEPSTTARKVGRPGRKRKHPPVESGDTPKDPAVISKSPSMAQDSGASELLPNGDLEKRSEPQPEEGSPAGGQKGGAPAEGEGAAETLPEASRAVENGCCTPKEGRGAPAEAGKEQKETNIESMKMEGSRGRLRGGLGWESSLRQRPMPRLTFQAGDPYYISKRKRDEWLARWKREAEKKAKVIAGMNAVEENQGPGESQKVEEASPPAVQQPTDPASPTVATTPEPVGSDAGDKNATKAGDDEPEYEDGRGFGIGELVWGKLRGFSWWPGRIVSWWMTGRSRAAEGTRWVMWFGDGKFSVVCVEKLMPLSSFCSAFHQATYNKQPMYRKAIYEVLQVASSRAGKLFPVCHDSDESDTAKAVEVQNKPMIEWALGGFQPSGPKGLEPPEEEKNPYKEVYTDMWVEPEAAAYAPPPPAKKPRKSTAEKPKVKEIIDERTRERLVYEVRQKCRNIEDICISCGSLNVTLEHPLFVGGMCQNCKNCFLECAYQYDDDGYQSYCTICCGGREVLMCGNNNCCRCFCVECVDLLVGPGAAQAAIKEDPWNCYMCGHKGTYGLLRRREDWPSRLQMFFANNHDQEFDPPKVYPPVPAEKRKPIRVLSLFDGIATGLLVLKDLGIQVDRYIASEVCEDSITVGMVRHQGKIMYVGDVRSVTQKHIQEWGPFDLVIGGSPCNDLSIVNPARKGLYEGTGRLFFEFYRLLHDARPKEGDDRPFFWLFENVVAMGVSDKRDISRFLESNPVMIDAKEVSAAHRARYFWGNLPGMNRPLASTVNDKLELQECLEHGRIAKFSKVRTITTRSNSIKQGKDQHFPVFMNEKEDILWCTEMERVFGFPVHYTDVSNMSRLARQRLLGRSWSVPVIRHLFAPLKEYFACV
# Chain of human DNMT3a/3l (Q9UJW3 whole entry partner, looked up): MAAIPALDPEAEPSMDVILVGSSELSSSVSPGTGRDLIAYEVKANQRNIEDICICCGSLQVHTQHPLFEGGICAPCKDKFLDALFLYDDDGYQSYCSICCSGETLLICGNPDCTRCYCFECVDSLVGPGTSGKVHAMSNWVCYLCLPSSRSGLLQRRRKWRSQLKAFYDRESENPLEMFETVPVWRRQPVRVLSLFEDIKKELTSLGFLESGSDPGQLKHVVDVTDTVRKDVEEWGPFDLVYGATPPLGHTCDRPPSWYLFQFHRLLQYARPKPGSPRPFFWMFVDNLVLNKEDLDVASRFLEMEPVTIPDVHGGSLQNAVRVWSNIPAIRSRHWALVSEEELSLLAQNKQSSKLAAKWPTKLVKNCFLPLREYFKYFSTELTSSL
# Procedure: DNMT3a/3l Breakliqht Assay
# DNMT3a/3l breaklight in vitro assays were conducted in a total volume of 50 μl in a standard 384 well format, using black non-binding surface microplates (Corning #3575). […] Negative control wells used 5 μl of DNMT3a/3l and 5 μl of oligonucleotide but also included 200 μM SAH. All reagents were made up in 1× assay buffer (20 mM Tris pH 7.4, 100 mM NaCl, 1.5 mM EDTA, 0.1 mM MgCl2, 1 mM CHAPS and 1 mM DTT). The reaction was incubated at 37° C. for 90 min and then stopped with the addition of 40 μl detection reagent. Detection reagent, made up in 1× Gla assay buffer (20 mM Tris pH 8.0, 80 mM NaCl, 0.75 mM MgCl2, 0.01% Triton X100 and 1 mM DTT) has a final concentration of 200 μM SAH (Sigma #A9384) and 0.0008 units/μl Gla1 restriction endonuclease (Sibenzyme #E494). Following addition of the detection reagent the plate was incubated in the dark at room temperature for 5 hr. Fluorescence intensity was then measured on the PHERAstar FS (BMG Labtech) at Ex 485 nm and Em 520 nm, with a gain of 400 and an integration time of 100 ms.
# [5] = molecular target: DNMT3B (Homo sapiens (Human), UniProt Q9UBC3); assay: DNMT3B breaklight assay; assay type: biochemical; conditions: read-out: DNMT3B Breaklight IC50
# [6] = binned activity in either the breaklight or the SPA assay
# [7] = binned activity in either the breaklight or the SPA assay, read-out: DNMT1 BioChemical (pIC50 category) (converted)
# [8] = breaklight assay and/or SPA assay, repeated experimental runs, read-out: average pIC50 against DNMT1 (converted)
# Chain of human full length DNMT1 (P26358 whole entry): as the sequence (P26358 whole entry, looked up) above
Compound,IC50 [1],"DNMT1 BioChemical (pIC50 category) [2, 6]",EC50 [3],"IC50 [2, 7]",IC50 [4],IC50 [5],"IC50 [2, 8]","average pIC50 against DNMT1 ([2]; breaklight assay and/or SPA assay, repeated experimental runs)"
"CCN1CCCN(c2nc(SC(C(N)=O)c3ccccc3)c(C#N)c(C3CC3)c2C#N)CC1 (centres unmarked) [Example 5, 2-{[3,5-dicyano-4-cyclopropyl-6-(4-ethyl-1,4-diazepan-1-yl)pyridin-2-yl]sulfanyl}-2-phenylacetamide]",≤ 500 nM,D (Category D: ≥6.5),< 316 nM,–,–,–,–,–
"CCc1c(C#N)c(SC(C(N)=O)c2ccccc2)nc(N(C)CCN2CCOCC2)c1C#N (centres unmarked) [Example 11, 2-[(3,5-dicyano-4-ethyl-6-{methyl[2-(morpholin-4-yl)ethyl]amino}pyridin-2-yl)sulfanyl]-2-phenylacetamide]",580 nM,–,316 to 1000 nM,316 to 1000 nM,–,–,–,–
"CCCN1CCN(c2nc(SC(C(N)=O)c3ccccc3)c(C#N)c(CC)c2C#N)CC1 (centres unmarked) [Example 12, 2-{[3,5-dicyano-4-ethyl-6-(4-propylpiperazin-1-yl)pyridin-2-yl]sulfanyl}-2-phenylacetamide]",≤ 500 nM,–,316 to 1000 nM,316 to 1000 nM,–,–,–,–
"N#Cc1c(SC(C(N)=O)c2ccccc2)nc(N2CCNC(=O)C2)c(C#N)c1C1CC1 (centres unmarked) [Example 15, 2-{[3,5-dicyano-4-cyclopropyl-6-(3-oxopiperazin-1-yl)pyridin-2-yl]sulfanyl}-2-phenylacetamide]",440 nM,–,1000 to 31600 nM,316 to 1000 nM,–,–,–,–
CC1CN(c2nc(SC(C(N)=O)c3ccccc3)c(C#N)c(C3CC3)c2C#N)CC(C)N1 (centres unmarked) [Example 20],≤ 500 nM,–,< 316 nM,–,–,–,–,–
"CC1CN(c2nc(SC(C(N)=O)c3ccccc3)c(C#N)c(C3CC3)c2C#N)CC(C)O1 (centres unmarked) [Example 21, 2-((3,5-Dicyano-4-cyclopropyl-6-(2,6-dimethylmorpholino)pyridin-2-yl)thio)-2-phenylacetamide]",> 750 nM,–,1000 to 31600 nM,316 to 1000 nM,–,–,–,–
CN1CCN(c2nc(SC(C(N)=O)c3ccccc3)c(C#N)c(C3CC3)c2C#N)CC1=O (centres unmarked) [Example 22],> 750 nM,–,< 316 nM,316 to 1000 nM,–,–,–,–
"N#Cc1c(SC(C(N)=O)c2ccccc2)nc(N2CCCC(N)C2)c(C#N)c1C1CC1 (centres unmarked) [Example 25, 2-((6-(3-aminopiperidin-1-yl)-3,5-dicyano-4-cyclopropylpyridin-2-yl)thio)-2-phenylacetamide]",≤ 500 nM,D (Category D: ≥6.5),< 316 nM,–,–,–,–,–
"N#Cc1c(SC(C(N)=O)c2ccccc2)nc(N2CCC(N)CC2)c(C#N)c1C1CC1 (centres unmarked) [Example 28, 2-((6-(4-aminopiperidin-1-yl)-3,5-dicyano-4-cyclopropylpyridin-2-yl)thio)-2-phenylacetamide]",≤ 500 nM,D (Category D: ≥6.5),< 316 nM,–,–,–,–,–
"CCc1c(C#N)c(SC(C(N)=O)c2ccccc2)nc(N2CCC3(CCO3)C2)c1C#N (centres unmarked) [Example 36, 2-((3,5-Dicyano-4-ethyl-6-(1-oxa-6-azaspiro[3.4]octan-6-yl)pyridin-2-yl)thio)-2-phenylacetamide]",> 750 nM,D (Category D: ≥6.5),1000 to 31600 nM,–,–,–,–,–
"CCc1c(C#N)c(SC(C(N)=O)c2ccccc2)nc(N2CCN(CCCN)CC2)c1C#N (centres unmarked) [Example 37, 2-((6-(4-(3-aminopropyl)piperazin-1-yl)-3,5-dicyano-4-ethylpyridin-2-yl)thio)-2-phenylacetamide]",≤ 500 nM,–,1000 to 31600 nM,316 to 1000 nM,–,–,–,–

# Results, then the molecule that gave them:
IC50 [1],"DNMT1 BioChemical (pIC50 category) [2, 6]",EC50 [3],"IC50 [2, 7]",IC50 [4],IC50 [5],"IC50 [2, 8]","average pIC50 against DNMT1 ([2]; breaklight assay and/or SPA assay, repeated experimental runs)",Compound
≤ 500 nM,D (Category D: ≥6.5),316 to 1000 nM,–,–,–,–,–,"CCc1c(C#N)c(SC(C(N)=O)c2ccccc2)nc(N2CCC3(CC2)CNC3)c1C#N (centres unmarked) [Example 43, 2-((3,5-Dicyano-4-ethyl-6-(2,7-diazaspiro[3.5]nonan-7-yl)pyridin-2-yl)thio)-2-phenylacetamide]"
–,D (Category D: ≥6.5),< 316 nM,–,> 500000 nM,> 500000 nM,–,–,"CCc1c(C#N)c(SC(C(N)=O)c2ccccc2)nc(N2CCCN(CCOC)CC2)c1C#N (centres unmarked) [Example 106, 2-({3,5-Dicyano-4-ethyl-6-[4-(2-methoxyethyl)-1,4-diazepan-1-yl]pyridin-2-yl}sulfanyl)-2-phenylacetamide]"
–,D (Category D: ≥6.5),< 316 nM,–,> 500000 nM,> 500000 nM,–,–,"CCc1c(C#N)c(SC(C(N)=O)c2ccccc2)nc(N2CCCN(CC(C)O)CC2)c1C#N (centres unmarked) [Example 107, 2-((3,5-dicyano-4-ethyl-6-(4-(2-hydroxypropyl)-1,4-diazepan-1-yl)pyridin-2-yl)thio)-2-phenylacetamide]"
–,D (Category D: ≥6.5),< 316 nM,–,> 500000 nM,> 500000 nM,–,–,"CCc1c(C#N)c(SC(C(N)=O)c2ccccc2)nc(N2CCCNCC2)c1C#N (centres unmarked) [Example 112, 2-{[3,5-Dicyano-6-(1,4-diazepan-1-yl)-4-ethylpyridin-2-yl]sulfanyl}-2-phenylacetamide]"
–,D (Category D: ≥6.5),< 316 nM,–,> 500000 nM,124000 nM,–,–,"CCc1c(C#N)c(SC(C(N)=O)c2ccccc2)nc(N2CCC3(CCCN(C)C3)CC2)c1C#N (centres unmarked) [Example 118, 2-((3,5-Dicyano-4-ethyl-6-(2-methyl-2,9-diazaspiro[5.5]undecan-9-yl)pyridin-2-yl)thio)-2-phenylacetamide]"
–,–,< 316 nM,316 to 1000 nM,> 500000 nM,> 500000 nM,316 to 1000 nM,–,"CCc1c(C#N)c(SC(C(N)=O)c2ccccc2)nc(N2CCN(C(C)=O)CC2)c1C#N (centres unmarked) [Example 126, 2-((6-(4-Acetylpiperazin-1-yl)-3,5-dicyano-4-ethylpyridin-2-yl)thio)-2-phenylacetamide]"
–,D (Category D: ≥6.5),316 to 1000 nM,–,> 500000 nM,> 500000 nM,–,–,"CN(C)c1nc(SC(C(N)=O)c2ccccc2)c(C#N)c(C2CC2)c1C#N (centres unmarked) [Example 127, 2-((3,5-Dicyano-4-cyclopropyl-6-(dimethylamino)pyridin-2-yl)thio)-2-phenylacetamide]"
–,–,316 to 1000 nM,316 to 1000 nM,> 500000 nM,> 500000 nM,–,–,"CCc1c(C#N)c(SC(C(N)=O)c2ccc(Cl)cc2)nc(N(C)C)c1C#N (centres unmarked) [Example 128, 2-(4-Chlorophenyl)-2-((3,5-dicyano-6-(dimethylamino)-4-ethylpyridin-2-yl)thio)acetamide]"
–,–,1000 to 31600 nM,316 to 1000 nM,> 500000 nM,> 500000 nM,≥ 1000 nM,–,"CCc1c(C#N)c(SC(C(N)=O)c2ccccc2)nc(N2CCN(CCO)CC2)c1C#N (centres unmarked) [Example 129, 2-((3,5-Dicyano-4-ethyl-6-(4-(2-hydroxyethyl)piperazin-1-yl)pyridin-2-yl)thio)-2-phenylacetamide]"
–,D (Category D: ≥6.5),< 316 nM,–,> 500000 nM,379000 nM,–,> 6.5,"CCc1c(C#N)c(SC(C(N)=O)c2ccccc2)nc(N2CCC(C)(N)CC2)c1C#N (centres unmarked) [Example 136, 2-((6-(4-Amino-4-methylpiperidin-1-yl)-3,5-dicyano-4-ethylpyridin-2-yl)thio)-2-phenylacetamide]"
